Values of other authors as cited in US20160101140A1, “Method for Processing Rosaceous Kernels” (priority 2014, published 2016).

Tested on: tumors
Conditions: finding of Sugiura

In the case of `N#C[C@H](O[C@@H]1O[C@H](CO[C@@H]2O[C@H](CO)[C@@H](O)[C@H](O)[C@H]2O)[C@@H](O)[C@H](O)[C@H]1O)c1ccccc1` [Vit B17, amygdalin], the “occurrence of a cancer” value is given as “can inhibit an occurrence of a cancer”, the “pain caused by the cancer” value is given as “can lessen the pain caused by the cancer” and the anti-cancer activity (background section) is given as “had anti-cancer activity”. The “inhibition of secondary tumors” value (mice) was “inhibited secondary tumors in mice”.
